Biological target: Induced myeloid leukemia cell differentiation protein Mcl-1 (Homo sapiens) (UniProt Q07820)
Experiment: blockers of MCL1–BIM BH3 interaction – biochemical, fluorescence polarization, assay provider data, round 3, late-stage follow-up (AID 602165)
Conditions: GST-MCL1 / FITC-BIM-BH3 peptide fluorescence polarization

Chain of Induced myeloid leukemia cell differentiation protein Mcl-1 (Homo sapiens) (Q07820 whole entry, looked up): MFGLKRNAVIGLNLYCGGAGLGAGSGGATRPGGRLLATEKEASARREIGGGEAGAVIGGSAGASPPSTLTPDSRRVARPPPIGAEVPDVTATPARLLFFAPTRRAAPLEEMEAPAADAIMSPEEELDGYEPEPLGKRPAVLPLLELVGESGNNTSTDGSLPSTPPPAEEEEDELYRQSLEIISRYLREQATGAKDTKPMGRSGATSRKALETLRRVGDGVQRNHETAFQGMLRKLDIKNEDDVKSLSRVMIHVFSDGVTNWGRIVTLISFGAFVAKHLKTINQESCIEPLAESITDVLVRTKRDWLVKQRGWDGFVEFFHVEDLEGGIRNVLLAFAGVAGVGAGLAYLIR

Row | SMILES | IC50 [nM]
1 | CN1CCN(C(c2ccc(F)cc2)c2ccc3cccnc3c2O)CC1 (stereo not drawn) | 600
2 | Oc1c(C(c2cccs2)N2CCN(c3ccccn3)CC2)ccc2cccnc12 (stereo not drawn) | 500
3 | CCN1CCN(C(c2cccs2)c2ccc3cccnc3c2O)CC1 (stereo not drawn) | 1600
4 | OCCN1CCN(C(c2cccs2)c2ccc3cccnc3c2O)CC1 (stereo not drawn) | 3300
5 | Oc1c(C(c2cccs2)N2CCCCC2)ccc2cccnc12 (stereo not drawn) | 2500

The next lines start with the values.

Row | IC50 [nM] | SMILES
6 | 1300 | CC(C)Oc1ccc(C(Nc2ccccn2)c2ccc3cccnc3c2O)cc1 (stereo not drawn)
7 | 400 | Cc1ccnc(NC(c2cccs2)c2ccc3cccnc3c2O)c1 (stereo not drawn)
8 | 600 | Oc1c(C(Nc2ccccn2)c2cccs2)ccc2cccnc12 (stereo not drawn)
